Our source for the pest or weed control values is patent US9089139B2, “Agri-horticultural pest control compositions comprising 4-(3-butynyl)aminopyrimidine derivatives” (SDS Biotech K. K., priority 2011, dated 2015).

For one test, the system named is Pseudoperonospora cubensis. Put plainly: Control effect against Pseudoperonospora cubensis on cucumber seedlings (control index as in Test 1). The test is classed as in vivo. As to conditions: Pseudoperonospora cubensis, 72 h; individual active compound, test concentration 0.05 ppm; read-out: Observed value Control index. From the text:
(§1) The expected efficacies of the combinations of the individual active compounds can be determined using Colby's formula, which is described below [Colby, S. R. “Calculating synergistic and antagonistic responses of herbicide combinations,” Weeds 15, 20-22 (1967)]: Colby's formula: E=A+B−(A×B/100) E is the predicted efficacy (control index) with reference to the untreated control when using the mixture of the active compound X at the concentration x and the active compound Y at the concentration y; A is the efficacy (control index) with respect to the untreated control when using the active compound X at the concentration x; B is the efficacy (control index) with respect to the untreated control when using the active compound […] at the concentration y.
(§2) Potted young seedlings of cucumber (variety: SAGAMI HANJIRO; in two-leaf stage) were sprayed with invention compounds formulated in accordance with Preparations and the existing antimicrobial active compounds listed in Table 3 (all compounds are identified by associated letters of the alphabet) after they were diluted with water to predetermined concentrations so that they would serve as active compounds; a spray gun was used to provide a spray rate of 15 ml per pot. After air-drying, the seedlings were inoculated with conida of Sphaerotheca fuliginea by spraying a suspension of the conida. Thereafter, the seedlings were cultivated for 14 days in a greenhouse and the percentage of diseased area was investigated for each leaf; based on the result of this investigation, the control index was calculated using the following formula: Control index={(percentage of diseased area on the untreated control−percentage of diseased area on treated sample)/percentage of diseased area on the untreated control}×100
Potted young seedlings of cucumber (variety: SAGAMI HANJIRO; in two-and-a-half leaf stage) were sprayed with invention agri-horticulatural pest control compositions formulated in accordance with Preparations and the existing antimicrobial active compounds listed in Table 5 (all compounds are identified by associated letters of the alphabet) after they were diluted with water to predetermined concentrations so that they would serve as active compounds; a spray gun was used to provide a spray rate of 15 ml per pot. After air-drying, the seedlings were inoculated with conida of Pseudoperonospora cubensis by spraying a suspension of the conida. Immediately thereafter, the seedlings were held for a day under the conditions of 21° C. and 100% humidity. The seedlings were then placed at room temperature and 3 days later, the percentage of diseased area was investigated for each leaf; based on the result of this investigation, the control index was calculated as in Test 1.
For `COCc1cc(C)ccc1C#CCCNc1ncnc2ccccc12` [compound 145], the pest or weed control at 0.05 ppm was 37%.
As for `OCC1=C(C#CCCNc2ncnc3ccccc23)CCCC1` [compound 390], the pest or weed control at 0.05 ppm came to 38%.
Still for that read-out and setting: under `FCC1=C(C#CCCNc2ncnc3ccccc23)CCCC1` [compound 391] stands 41%.

Another test deals with Aphis gossypii. Briefly: Test 3: insecticidal effect on Aphis gossypii (mortality rate). It is filed as in vivo. As to conditions: Aphis gossypii, 48 h; individual active compound, test concentration 0.1 ppm; read-out: Observed value Mortality rate.
Source text: as §1
Invention compounds and the existing insecticidal active compounds shown in Table 7 (hereinbelow, the compound names are identified by associated letters of the alphabet) were diluted with water to predetermined concentrations so that they would serve as active ingredients. Cucumber leaves with a diameter of 3 cm were placed on plastic cups filled with 0.5% soft agar and five adult aphids were released to feed on the leaves. After standing overnight, the adult insects were removed and the number of nymph as an offspring was counted; each of the prepared liquid samples of insecticide was sprayed in 0.4 ml portions and two days later, the number of dead insects was countd to calculate the mortality rate. The expected efficacies of the combinations of the individual active compounds were calculated by Colby's formula.
Turning to `COCc1cc(C)ccc1C#CCCNc1ncnc2ccccc12` [compound 145], the pest or weed control at 0.1 ppm amounted to 35%.
Same read-out and setting: under `OCC1=C(C#CCCNc2ncnc3ccccc23)CCCC1` [compound 390] stands 41%; under `FCC1=C(C#CCCNc2ncnc3ccccc23)CCCC1` [compound 391], 43%.

The next test relates to Sphaerotheca fuliginea. Put plainly: Test 1: control effect against powdery mildew on cucumber (control index). The test is classed as in vivo, Sphaerotheca fuliginea on cucumber (variety: SAGAMI HANJIRO). As to conditions: Podosphaera fuliginea, 336 h; individual active compound, test concentration 0.5 ppm.
Source text: as §1, §2
In the case of `COCc1cc(C)ccc1C#CCCNc1ncnc2ccccc12` [compound 145], the pest or weed control at 0.5 ppm worked out at 45%.
For the compound `OCC1=C(C#CCCNc2ncnc3ccccc23)CCCC1` [compound 390], the pest or weed control at 0.5 ppm worked out at 51%.
The same measure, in the same setting: for `FCC1=C(C#CCCNc2ncnc3ccccc23)CCCC1` [compound 391] the value was 48%.
